Experimental data taken from PubChem BioAssay (NCI).
Where “and” joins values, the source holds several entries; their conditions need not be identical. Identical values can stand only once.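 48-hour exposure; five concentrations; linearly interpolated endpoints. The concentration for 50% growth inhibition is given as GI50. TGI is the concentration that stops growth completely.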

Key:
Experiment in all cases: NCI-60 cell line screen, 48 h
UACC-257 melanoma = system: UACC-257 melanoma
SN12C renal = system: SN12C renal
DU-145 prostate = system: DU-145 prostate
SF-295 CNS = system: SF-295 CNS
HCC-2998 colon = system: HCC-2998 colon
NCI-H522 lung = system: NCI-H522 lung
HOP-62 NSCLC = system: HOP-62 NSCLC
CAKI-1 renal = system: CAKI-1 renal
EKVX NSCLC = system: EKVX NSCLC
HOP-92 NSCLC = system: HOP-92 NSCLC

Row | Compound | GI50 (UACC-257 melanoma) | TGI (UACC-257 melanoma) | GI50 (SN12C renal) | TGI (SN12C renal) [µM] | GI50 (DU-145 prostate) | TGI (DU-145 prostate) [µM] | GI50 (SF-295 CNS) | TGI (SF-295 CNS) | GI50 (HCC-2998 colon) | TGI (HCC-2998 colon) | GI50 (NCI-H522 lung) | TGI (NCI-H522 lung) | GI50 (HOP-62 NSCLC) | TGI (HOP-62 NSCLC) [µM] | GI50 (CAKI-1 renal) | TGI (CAKI-1 renal) | GI50 (EKVX NSCLC) | TGI (EKVX NSCLC) [µM] | GI50 (HOP-92 NSCLC) | TGI (HOP-92 NSCLC)
1 | COc1ccc(C(O)c2cc3c(N)c(C(=O)Nc4cccc(Br)c4)sc3nc2C)cc1 (stereo not drawn) | 6.4 µM | > 50.4 µM | 0.21 µM | > 31.9 | 0.128 µM | 11.9 | 0.11 µM | > 31.7 µM | 0.121 µM | 15.5 µM | 0.0814 µM | 1.85 µM | 0.207 µM | > 42.2 | 0.141 µM | > 32 µM | 0.197 µM | > 100 | 0.554 µM | 21.3 µM
2 | COc1ccc([C@H]2O[C@@H](CO)C[C@]2(O)c2ccc(OC)cc2)cc1 | > 100 µM | > 100 µM | > 100 µM | > 100 | > 100 µM | > 100 | > 100 µM | > 100 µM | > 100 µM | > 100 µM | > 100 µM | > 100 µM | > 100 µM | > 100 | > 100 µM | > 100 µM | > 100 µM | > 100 | 95.6 µM | > 100 µM
3 | O=C(/C=C/c1ccco1)Nc1ncc(Cc2ccc(F)cc2)s1 | – | > 100 µM | 0.189 µM | > 100 | 0.0901 µM | > 100 | 0.0709 µM | > 100 µM | 0.224 µM | > 100 µM | 0.0255 µM | 0.191 µM | 0.145 µM | > 100 | 0.0525 µM | > 100 µM | 0.303 µM | > 100 | 8.56 µM | > 100 µM
4 | Cn1ccnc1C(=O)/C=C/c1ccc(C(=O)Nc2nc3ccccc3[nH]2)cc1 | > 25 µM | > 25 µM | 9.93 µM | > 25 | 0.92 µM | 4.63 | > 25 µM | > 25 µM | 10.3 µM | > 25 µM | 8.54 µM | > 25 µM | 6.42 µM | > 25 | 1.63 µM | > 25 µM | 7.73 µM | > 25 | 6.28 µM | > 25 µM
5 | COC(=O)CCC1=C(C)c2cc3[n-]c(cc4nc(cc5[n-]c(cc1n2)c(CCC(=O)OC)c5C)C=C4C)cc3C.[Cd+2] | 4.06 µM | 18.3 µM | 19.1 µM | 58 | 4.5 µM | 10.4 | 17.5 µM | 77 µM | 22.2 µM | > 68.1 µM | 0.265 µM | 0.754 µM | 25.4 µM | 76.2 | 12.4 µM | 38.1 µM | 5.89 µM | > 52.2 | 16.7 µM | 40 µM
6 | O=c1[nH]c(-c2ccc(C(F)(F)F)cc2)nc2c1CSCC2 | > 65.2 µM | > 100 µM | > 100 µM | > 100 | > 84.5 µM | > 100 | 52.7 µM | > 100 µM | > 81.2 µM | > 100 µM | > 100 µM | > 100 µM | 17.5 µM | 51.2 | 13.7 µM | > 100 µM | > 42.1 µM | > 100 | 17.1 µM | 46.3 µM
7 | c1ccc(-c2nc(N3CCNCC3)c3nc(-c4ccccc4)oc3n2)cc1 | 1.93 µM | 3.81 µM | 1.69 µM | 3.29 | 1.86 µM | 3.33 | 1.86 µM | 3.38 µM | 1.81 µM | 3.49 µM | 1.81 µM | 3.86 µM | 1.98 µM | 3.94 | 1.55 µM | 2.94 µM | 1.78 µM | 3.39 | 1.5 µM | 3.1 µM
8 | COc1ccc(/C=C\c2cc(OC)c(OC)c(OC)c2)c(NS(=O)(=O)c2ccc(C)cc2)c1O | 17.8 µM | > 100 µM | 0.0736 µM | > 76.2 | 0.0399 µM | – | 0.0509 µM | – | 0.0904 µM | 10.9 µM | 0.0377 µM | > 35 µM | 1.29 µM | > 100 | 0.0938 µM | > 100 µM | 0.0644 µM | > 100 | 0.102 µM | 27.5 µM
9 | O=[As](O)(O)c1ccc(Cc2ccc([As](=O)(O)O)cc2)cc1 | – | 1.3 µM | – | 2.08 | – | 1.17 | – | 8.46 µM | – | 3.68 µM | – | 1.44 µM | – | 3.6 | – | 2.78 µM | – | 2.88 | – | 2.92 µM
10 | COc1cc(C2C(C#N)=C(N)OC3=C2C(=O)c2ccccc2C3=O)cc(OC)c1OC (stereo not drawn) | 1.18 µM | 13.3 µM | 1.3 µM | 11.1 | 0.474 µM | 15.9 | 8.29 µM | 24.8 µM | 2.52 µM | 18.7 µM | 0.26 µM | 16.8 µM | 0.961 µM | 17.7 | 0.736 µM | 20.6 µM | 12.6 µM | 34 | 0.861 µM | 24.9 µM
11 | Oc1ccc2ccccc2c1N=Nc1ccccc1 | – | > 100 µM | – | > 100 | – | > 100 | 39.6 µM and > 90.3 µM | > 100 µM | – | > 100 µM | – | > 100 µM | – | > 100 | – | > 100 µM | 15.5 µM and > 62.4 µM | > 100 | – | > 100 µM
12 | Oc1c(CN2CCCC2)cc(COCc2ccccc2)c2cccnc12 | 2.84 µM | 8.25 µM | 4.04 µM | 20.8 | 3.4 µM | 16.8 | 2.86 µM | 13.7 µM | 3.72 µM | 16.5 µM | 2.62 µM | 9.97 µM | 1.65 µM | 9.5 | 0.26 µM | 14.2 µM | 2.01 µM | 15.6 | 7.15 µM | 26.6 µM
13 | O=C(NNS(=O)(=O)c1cc(C(F)(F)F)cc(C(F)(F)F)c1)c1cnn(-c2ccc(Cl)cc2)c1C(F)(F)F | 15.2 µM | 43.7 µM | 17.2 µM | 34.8 | 18.6 µM | 44.1 | 14.9 µM | 44 µM | 16.4 µM | 31 µM | 18.8 µM | 43.1 µM | 18.2 µM | 34.3 | 26.2 µM | 57.2 µM | 16 µM | 43.2 | 14.8 µM | 31.8 µM
14 | C[C@@H]1CC[C@@]2(OC1)O[C@H]1C[C@H]3[C@@H]4CC=C5C[C@@H](O[C@@H]6O[C@H](CO)[C@@H](O[C@@H]7O[C@@H](CO)[C@H](O)[C@H]7O)[C@H](O)[C@H]6O[C@@H]6O[C@@H](C)[C@H](O)[C@@H](O)[C@H]6O)CC[C@]5(C)[C@H]4CC[C@]3(C)[C@H]1[C@@H]2C | 1.31 µM | 2.64 µM | 0.481 µM | 1.65 | 1.17 µM | 2.4 | 1.71 µM | 3.11 µM | 1.71 µM | 3.1 µM | 1.67 µM | 3.23 µM | 1.09 µM | 2.4 | – | 2.05 µM | 1.62 µM | 3.04 | 0.806 µM | 2.1 µM
15 | COc1ccc2c3c(c(OCCCN(C)C)nc2c1)-c1ccc(Cl)cc1C3=O | 16.4 µM | 33 µM | 5.33 µM | 21.3 | 6.08 µM | 19.1 | 10.6 µM | 23.8 µM | 5.19 µM | 21 µM | 7.1 µM | 24.1 µM | 7.71 µM | 25.3 | 11.4 µM | 23.6 µM | 7.17 µM | 22.7 | 1.78 µM | 11.8 µM
16 | CC(=O)Oc1cccc2c1C(=O)c1c(OC(C)=O)cc(C)cc1C2=O | – | > 100 µM | – | > 100 | – | > 100 | – | > 100 µM | – | > 100 µM | – | > 100 µM | – | > 100 | – | > 100 µM | – | > 100 | – | > 100 µM
17 | N#Cc1nc(-c2ccccc2)oc1S(=O)(=O)N1CCOCC1 | 4.74 µM | 19 µM | 4.12 µM | 17.1 | 6.08 µM | 19.1 | 38.2 µM | > 100 µM | 17.3 µM | 33.7 µM | 0.702 µM | 3 µM | 34.7 µM | > 100 | 1.61 µM | 3.04 µM | 4.4 µM | 24.9 | 1.6 µM | 3.15 µM
18 | Cc1nc(NC(=O)N2CCC[C@H]2C(N)=O)sc1-c1ccnc(C(C)(C)C(F)(F)F)c1 | 9.58 µM and > 10 µM | 45 µM and > 10 µM | 6.43 µM and > 10 µM | > 100 | 4.84 µM and 9.16 µM | > 73.1 | 2.79 µM and 4.1 µM | 16 µM and > 10 µM | 12.8 µM and 6.71 µM | 49.9 µM and > 10 µM | 6.41 µM and 8.17 µM | 27.1 µM and > 10 µM | 8.06 µM and > 10 µM | > 75.1 | 2.39 µM and 3.35 µM | 17.8 µM and > 10 µM | 4.53 µM | > 10 | 0.0598 µM and 0.13 µM | 1.52 µM and 2.89 µM
19 | Cn1c(=O)c2[nH]c(COc3ccc(C(C)(C)C)cc3)nc2n(C)c1=O | 6.03 µM | 31.6 µM | 33.4 µM | > 100 | 17.7 µM | > 100 | 4.03 µM | > 100 µM | 16.8 µM | > 100 µM | 19.6 µM | 88 µM | 35.4 µM | > 100 | 12 µM | > 100 µM | 3.34 µM | > 100 | 0.428 µM | 30.6 µM
